One may read the MIC as the least concentration at which growth counts as inhibited. As usually defined, the IC50 is the midpoint of a concentration-inhibition curve. The term MIC50 denotes the lowest concentration that inhibits either 50% of growth or 50% of the strains tested, depending on the study. The term MIC90 denotes an inhibitory concentration at the 90% level, which refers to growth in some studies and to a panel of isolates in others.

≈ marks a conversion by molar mass, not a printed value. Where two headings read alike, the source gives them in different places. Some results are limits rather than exact numbers.

Test [1] deals with A. fumigatus. In words: In vitro antimycotic activity, macromethod of scalar broth dilutions (SDB). In kind it is cell-based. The settings on record: Aspergillus fumigatus, 168 h. As for the experimental part:
(§1) The determination of the activity inhibiting the growth of mycetes was evaluated by the macromethod of scalar brothdilutions in geometrical progression (M.R. McGinnis and M.G. Rinaldi, "Antifungal drugs: mechanisms of action, drug resistance, susceptibility testing and assay of activity in biological fluids", in Antibiotic in Laboratory Medicine, Ed. V. Lorian, Baltimora 1991).
(§2) As culture media Yeast Nitrogen Base broth (YNB) and Sabouraud Dextrose broth (SDB) were used for yeasts and moulds, respectively.
(§3) The results obtained in SDB (after incubation at 28°C for 7 days) were expressed as minimum inhibiting concentrations (MIC) the growth of mycetes, while those obtained in YNB (after incubation at 35°C for 48 hours) were expressed as concentrations able to inhibit at 50% (IC50) the growth of the yeast.
(§4) As reference compounds Fluconazole, Itraconazole and Genaconazole were used.
Background: Broth dilution looks for growth in wells or tubes with falling amounts of substance.

Test [2] concerns C. krusei (2). The experiment in a line: In vitro antimycotic activity, strain panel (Table 2). Type of test: cell-based, Candida krusei. The settings on record: Pichia kudriavzevii. As to the method: as §1, §2, §3, §4
(§5) Note to the table: MIC expressed as µg/ml Within brackets the number of tested strains Table 3

The subject of test [3] is C. glabrata (2). The test is described as above. Type of test: cell-based, Candida glabrata. The settings on record: Nakaseomyces glabratus. As for the experimental part:
as §1, §2, §3, §4, §5

Test [4] relates to C. neoformans. In words: In vitro antimycotic activity, macromethod of scalar broth dilutions (YNB). In kind it is cell-based. The settings on record: Cryptococcus neoformans. As for the experimental part: as §1, §2, §3, §4
The subject of test [5] is Trichosporon sp. (1). The experiment in a line: In vitro antimycotic activity, strain panel (Table 2). In kind it is cell-based. As for the experimental part:
as §1, §2, §3, §4, §5

Test [6] has as its system B. capitatus (1). The test is described as above. In kind it is cell-based. The settings on record: Magnusiomyces capitatus. As for the experimental part: as §1, §2, §3, §4, §5
Test [7] has as its system C. spp * (5) (C. parapsilosis, lusitaniae, kefyr). The description is as above. The settings on record: Lodderomyces parapsilosis. In kind it is cell-based. As for the experimental part:
as §1, §2, §3, §4, §5

The subject of test [8] is C. neoformans (4). The description is as above. The settings on record: Cryptococcus neoformans. In kind it is cell-based. As to the method:
as §1, §2, §3, §4, §5

In test [9] the test system is C. albicans (7). The test is described as above. In kind it is cell-based. The settings on record: Candida albicans. As to the method: as §1, §2, §3, §4, §5
Test [10] deals with C. tropicalis (2). The description is as above. Type of test: cell-based. The settings on record: Candida tropicalis. As for the experimental part:
as §1, §2, §3, §4, §5

Test [11] relates to Candida albicans 1040. In words: In vivo antimycotic activity in mice experimentally infected by C. albicans, oral route. Also noted: species or system Charles River white mice (CD1 strain). The settings on record: for % percentage of survival after day 3 / % percentage of survival after day 6: mice infected by C. albicans, dose 25 mg/kg/os; for PD50 at 8th day / PD50 at 14th day: oral route, probits analysis; for PD50 at 8th day: 8 days from the infection; for PD50 at 14th day: 14 days from the infection. As to the method:
Charles River white mice (CD1 strain) weighing from 23 to 25 g, normo-feeded with standard diet and water ad libitum were used.
A suspension (0.2 ml containing 2.5x10^7 cells/ml) of Candida albicans 1040 in physiologic solution was injected to each animal by venous route. Immediately after the infection and after 4, 24 and 48 hours, the animals received by oral route (in arabic gum at 2%) doses increasing in a geometrical progression of the compound to be tested. The infected group was used as control.
The observation of the mortality of the mice was prolonged up to 14 days. From the number of survived animals for each concentration the average protective dose (DP50) was calculated by probits analysis (L.Lison - "Statistica applicata alla biologia sperimentale. La programmazione dell'esperimento e l'analisi dei risultati" - Casa Editrice Ambrosiana, 1961).
Compounds R1 and R2 were used as comparative compounds.
Fluconazole and Itraconazole were used as reference compounds.

Test [12] relates to T.mentagrophytes. In words: In vitro antimycotic activity, macromethod of scalar broth dilutions (SDB). Type of test: cell-based, Trychophyton mentagrophytes. The settings on record: Trichophyton mentagrophytes, 168 h. As for the experimental part: as §1, §2, §3, §4
In test [13] the test system is Fusarium sp. The experiment in a line: In vitro antimycotic activity against recently isolated Fusarium strains (Tables 2 and 3). Type of test: cell-based. The settings on record: for MIC: Fusarium; for In vitro antimycotic activity: quantity and unit not given in Table 3. As for the experimental part:
as §1, §2, §3, §4, §5

The subject of test [14] is A. niger. In words: In vitro antimycotic activity against recently isolated Aspergillus niger (Table 3). The settings on record: A. niger strain 94-6222; quantity and unit not given in Table 3. Type of test: cell-based. As for the experimental part:
as §1, §2, §3, §4

The test system of test [15] is C. albicans 1040. The experiment in a line: In vitro antimycotic activity, macromethod of scalar broth dilutions (YNB). Type of test: cell-based, Candida albicans. As to the method: as §1, §2, §3, §4
The mark [16] stands for this setting: Trichosporon sp., 1 strain, single value under head MIC50 MIC90, read-out: MIC.
The mark [17] stands for this setting: B. capitatus, 1 strain, single value under head MIC50 MIC90, read-out: MIC.
The mark [18] stands for this setting: C. parapsilosis, lusitaniae, kefyr, 5 strains, read-out: MIC50.
Where [19] appears, read: C. parapsilosis, lusitaniae, kefyr, 5 strains, read-out: MIC90.
Setting [20] is: C. neoformans, 4 strains, read-out: MIC50.
Where [21] appears, read: C. neoformans, 4 strains, read-out: MIC90.
[22] abbreviates: C. albicans, 7 strains, read-out: MIC50.
The mark [23] stands for this setting: C. albicans, 7 strains, read-out: MIC90.
Setting [24] is: C. tropicalis, 2 strains, single value or range printed under head MIC50 MIC90, read-out: MIC.
Setting [25] is: C. krusei, 2 strains, range printed under head MIC50 MIC90, read-out: MIC.

As for `CC(COC(F)(F)C(F)F)C(O)(Cn1cncn1)c1ccc(Cl)cc1Cl` (racemic) [Compound 1, (±)-1-(1H-1,2,4-triazolyl)-2-hydroxy-2-(2,4-dichlorophenyl)-3-methyl-4-(1,1,2,2-tetrafluoroethoxy)butane], the minimal inhibitory concentration (MIC) in [1] was 8 µg/mL (≈ 19.2 µM); in test [2], 0.03 to 0.12 µg/mL (≈ 0.0721 to 0.288 µM); in [3], 0.12 µg/mL (≈ 0.288 µM); in [5] (Trichosporon) it was not above 0.03 µg/mL; in [6], not above 0.03 µg/mL; in [10], 0.12 µg/mL (≈ 0.288 µM). The MIC in [12] was 0.125 µg/mL (≈ 0.3 µM); in [13], 0.25 µg/mL (≈ 0.601 µM). The IC50 in [4] (48 h) is 0.004 µg/mL (≈ 0.00961 µM); in test [15] (Candida albicans, 1040, 48 h), 0.0156 µg/mL (≈ 0.0375 µM). For the same molecule, the MIC50 in test [7], in [8] and in test [9] was not above 0.03 µg/mL throughout. Moreover, the MIC90 in test [7] was not above 0.03 µg/mL; in test [8] it was not above 0.03 µg/mL; in [9] it was 0.06 µg/mL (≈ 0.144 µM). The “% percentage of survival after day 3” value in test [11] amounted to 100%. Moreover, the “% percentage of survival after day 6” value in test [11] was 100%. In [11], the “PD50 at 8th day” value is reported as 0.120 mg/kg/os. Besides, the “PD50 at 14th day” value in test [11] is given as 0.74 mg/kg/os. For the same molecule, the “In vitro antimycotic activity” value was 0.25 in [13] (Fusarium sp strain 81-256); 0.5 in test [13] (Fusarium sp strain 86-3369); 0.5 in test [13] (Fusarium sp strain 88-2116); 0.5 in test [13] (Fusarium sp strain 946301); not above 0.03 in [14].
Regarding `CC(C)(COC(F)(F)C(F)F)C(O)(Cn1cncn1)c1ccc(F)cc1F` (racemic) [Compound 5], the MIC in test [1] (A. fumigatus, SDB, incubation at 28°C for 7 days, read-out: MIC) was 8 µg/mL (≈ 20.1 µM); in test [3] (C. glabrata, 2 strains, single value or range printed under head MIC50 MIC90, read-out: MIC), 0.12 µg/mL (≈ 0.302 µM); in [5] (setting [16]), not above 0.03 µg/mL; in [6] (setting [17]), 0.06 µg/mL (≈ 0.151 µM); in [10] (setting [24]) it was 0.12 µg/mL (≈ 0.302 µM); in test [12] (T.mentagrophytes, SDB, incubation at 28°C for 7 days, read-out: MIC) it was 0.25 µg/mL (≈ 0.629 µM). Also, the minimum inhibitory concentration (MIC) in test [13] is 0.25 µg/mL (≈ 0.629 µM). Also, the MIC50 in test [2], in test [7] (setting [18]), in test [8] (setting [20]) and in test [9] (setting [22]) was not above 0.03 µg/mL each time. Further, the MIC90 is 0.12 µg/mL (≈ 0.302 µM) in test [2], not above 0.03 µg/mL in test [7] (setting [19]), not above 0.03 µg/mL in test [8] (setting [21]) and 0.5 µg/mL (≈ 1.26 µM) in test [9] (setting [23]). Moreover, the IC50 in test [4] (C. neoformans, YNB, incubation at 35°C for 48 hours, read-out: IC50) stood at 0.0156 µg/mL (≈ 0.0393 µM); in test [15] (Candida albicans, C. albicans 1040, YNB, incubation at 35°C for 48 hours, read-out: IC50), 0.0156 µg/mL (≈ 0.0393 µM). In addition, the “PD50 at 8th day” value in [11] was 0.50 mg/kg/os. For the same molecule, the “PD50 at 14th day” value in test [11] came to 1.14 mg/kg/os.
With `C[C@H]([C@](O)(Cn1cncn1)c1ccc(F)cc1F)S(C)(=O)=O` [Genaconazole, (2R,3R) α-(2,4-difluorophenyl)-α-[1-(methylsulfonyl)ethyl]-1H-1,2,4-triazol-1-ethanol, reference compound], the minimum inhibitory concentration (MIC) is 16 to 32 µg/mL (≈ 48.3 to 96.6 µM) in test [2] (setting [25]); 32 µg/mL (≈ 96.6 µM) in [5] (setting [16]); 16 µg/mL (≈ 48.3 µM) in test [6] (setting [17]); more than 64 µg/mL in test [10] (setting [24]); 64 µg/mL (≈ 193 µM) in test [13]. Also, the MIC50 in test [7] (setting [18]) turned out to be 0.5 µg/mL (≈ 1.51 µM); in test [8] (setting [20]), 8 µg/mL (≈ 24.1 µM); in test [9] (setting [22]), 2 µg/mL (≈ 6.04 µM). Further, the MIC90 in [7] (setting [19]) is 1 µg/mL (≈ 3.02 µM); in [8] (setting [21]), 16 µg/mL (≈ 48.3 µM); in [9] (setting [23]), 32 µg/mL (≈ 96.6 µM). In addition, the entries for the “In vitro antimycotic activity” value in test [13] (Fusarium sp strain 81-256) and in test [14] were 64 and 32, respectively.
Turning to `CCC(C)n1ncn(-c2ccc(N3CCN(c4ccc(OCC5COC(Cn6cncn6)(c6ccc(Cl)cc6Cl)O5)cc4)CC3)cc2)c1=O` (centres unmarked) [Itraconazole, reference compound], the values for the MIC in [2] (setting [25]) and in test [10] (setting [24]) were 0.03 to 0.12 µg/mL (≈ 0.0425 to 0.17 µM) and 0.1 µg/mL (≈ 0.142 µM), respectively. Further, the MIC50 in test [7] (setting [18]) is not above 0.03 µg/mL; in test [8] (setting [20]), not above 0.03 µg/mL; in [9] (setting [22]) it was 0.06 µg/mL (≈ 0.085 µM). The MIC90 in test [7] (setting [19]) worked out at 0.06 µg/mL (≈ 0.085 µM); in test [8] (setting [21]), 0.1 µg/mL (≈ 0.142 µM); in [9] (setting [23]), 0.12 µg/mL (≈ 0.17 µM). Also, in [11], the “% percentage of survival after day 3” value is given as 100%. Also, the “% percentage of survival after day 6” value in test [11] is given as 100%. The “PD50 at 8th day” value in test [11] was found to be 2.31 mg/kg/os. The “PD50 at 14th day” value in [11] is on record as more than 8 mg/kg/os. Also, the “In vitro antimycotic activity” value was 2 in test [13] (Fusarium sp strain 81-256); 2-16 in [13] (Fusarium sp strain 86-3369); 2-8 in test [13] (Fusarium sp strain 88-2116); 2-16 in test [13] (Fusarium sp strain 946301); not above 0.03 in test [14].

These data come from EP0819124B1, “AZOLE COMPOUNDS WITH ANTIMYCOTIC ACTIVITY FOR HUMAN AND VETERINARY USE” (ZAMBON GROUP S.p.A., priority 1995, dated 1996).
